Laboratory results: PubChem BioAssay AID2060336 (Molecular Pharmacology Branch, DTP, NCI, 2025)
pIC50: −log10 of the molar value. “And” between values parts separate entries of the source, which are not always exact repeats. Equal values may be shown once. Each block holds one compound with its values, some of them ahead of it.

System: 958767-090-R-J1-PDC spheroid growth
Assay: Anticancer human tumor 958767-090-R-J1-PDC patient-derived head and neck squamous carcinoma cell line growth inhibition [IpAb]
Conditions: spheroids with HUVEC and MSC; for viability, T/C: stronger effect = lower value
Text: Combinatorial screen of targeted agents with ipatasertib and abemaciclib in multi-cell type tumor spheroids
A high-throughput screen of multi-cell type tumor spheroids was designed to identify active combinations of targeted small molecules and ipatasertib or abemaciclib. Complex spheroids include a stromal component modeled by human endothelial cells (HUVEC) and fibroblasts modeled by human mesenchymal stem cells (MSCs). The concentration ranges selected for each drug and investigational agent were based upon clinically achievable concentrations if the clinical Cmax of the agent was known.
Compounds. The drugs and investigational agents: ipatasertib (NSC767898), abemaciclib(NSC768073), selumetinib (NSC741078), trametinib (758246), adavosertib (NSC754352), everolimus (NSC733504), sapanisertib (NSC764658), vemurafenib (NSC761431), venetoclax (NSC766270), copanlisib (NSC809693), apelisib (NSC765974), palbociblib (NSC758247), vemurafenib (NSC761431), dabrafenib (NSC764134), ravoxertinib (NSC781343), BMS-387032 (NSC767048), sotorasib (NSC818433), talazoparib (NSC767125) and afursertib (NSC778305), were obtained from the National Cancer Institute (NCI) Developmental Therapeutics Program Chemical Repository. The FDA-approved anticancer drug set is available from the NCI Developmental Therapeutics Program. […] The stock solutions were prepared in dimethyl sulfoxide (DMSO, Sigma-Aldrich, St. Louis, MO, cat. D2650) at 800-fold the tested concentration and stored at -70 degrees C prior to their use. All drugs and investigational agents were tested over a range starting from a high concentration at or near the clinical Cmax and decreasing in half-log increments. If the clinical Cmax for an agent had not been determined, the highest concentration tested was 10 microM.
NCI60 Cell Culture. NCI60 cell lines were obtained from the NCI Developmental Therapeutics Program Tumor Repository. For each lot of cells, the Repository performed Applied Biosystems AmpFLSTR Identifiler testing with PCR amplification to confirm consistency with the published Identifier STR profile for each cell line. Cells were kept in continuous culture for no more than 20 passages. The optimal seeding densities for each of the cell lines at each time point assessed were determined prior to performing the concentration response studies. Briefly, the NCI60 human tumor lines were grown as monolayers in RPMI 1640 medium supplemented with 10% FBS and 2 mmol/L L-glutamine.
An additional 9 lines were from the NCI60 cell line panel including MDA-MB-231 breast carcinoma, MDA-MB-468 breast carcinoma, MCF7 breast carcinoma, Hs578T breast carcinoma, MALME-3M melanoma, SK-MEL-2 melanoma, SK-OV-3 ovarian carcinoma, DU-145 prostate carcinoma, PC-3 prostate carcinoma, all cell lines along with major genetic alterations are listed on Table 2. Pooled donor human umbilical vein endothelial cells (HUVEC, Lonza, cat. CC-2519) and human mesenchymal stem cells (hMSC, Lonza, cat. PT-2501) were purchased from Lonza (Walkersville, MD).
PDMR cell lines were grown in complete medium (DC medium): Dulbecco's modified Eagle's medium (DMEM)/F12 supplemented with 5% fetal bovine serum (FBS), 2 mM L-glutamine, 100 U/mL penicillin and 100 µg/ml streptomycin, 0.4 µg/ml hydrocortisone, 10 ng/ml epidermal growth factor (EGF) recombinant human protein, 24 µg/mL adenine, and 0.1 mg/mL primocin. During culture from frozen stock vials, PDMR cells were cultured in the same medium containing 10 µM Y-27632 (see Table 3). The PDCs were cultured in complete DMEM/F12 media without 10 microM Y-27632 dihydrochloride for at least two passages prior to the screen. The pooled donor HUVEC and hMSC were cultured in endothelial cell growth medium 2 (PromoCell, Heidelberg, Germany, cat. C-22011) and mesenchymal stem cell growth medium 2 (PromoCell, cat. C-28009), respectively. For all experiments, HUVEC and hMSC were used at passages </=5.
[…]

[1] = curve of first compound, second compound 0.01 µM
[2] = curve of first compound, second compound 0.0316 µM
[3] = curve of first compound, second compound 0.1 µM
[4] = curve of first compound, second compound 0.316 µM
[5] = curve of first compound, second compound 1 µM
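Also: spheroids exposed to agents for 7 days.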
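For viability, T/C in this document: 100% = DMSO vehicle control wells.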

Compound: CC(C)(C)c1cnc(CSc2cnc(NC(=O)C3CCNCC3)s2)o1 + CCN1CCN(Cc2ccc(Nc3ncc(F)c(-c4cc(F)c5nc(C)n(C(C)C)c5c4)n3)nc2)CC1
pIC50 [1]: 6.84
pIC50 [2]: 6.87
pIC50 [3]: 7.03
pIC50 [4]: 7.37
pIC50 [5]: 7.32
viability, T/C (second compound 0.01 µM, first compound 0.00949 µM): 106%
viability, T/C (second compound 0.01 µM, first compound 0.03 µM): 97.6%
viability, T/C (second compound 0.01 µM, first compound 0.0949 µM): 76.5%
viability, T/C (second compound 0.01 µM, first compound 0.3 µM): 2.6%
viability, T/C (second compound 0.01 µM, first compound 0.949 µM): 2.82%
viability, T/C (second compound 0.01 µM, first compound 3 µM): 2.81%
viability, T/C (second compound 0.0316 µM, first compound 0.00949 µM): 98.5%
viability, T/C (second compound 0.0316 µM, first compound 0.03 µM): 84.2%
viability, T/C (second compound 0.0316 µM, first compound 0.0949 µM): 70.5%
viability, T/C (second compound 0.0316 µM, first compound 0.3 µM): 1.81%
viability, T/C (second compound 0.0316 µM, first compound 0.949 µM): 2.35%
viability, T/C (second compound 0.0316 µM, first compound 3 µM): 1.86%
viability, T/C (second compound 0.1 µM, first compound 0.00949 µM): 76.2%
viability, T/C (second compound 0.1 µM, first compound 0.03 µM): 63.3%
viability, T/C (second compound 0.1 µM, first compound 0.0949 µM): 50.1%
viability, T/C (second compound 0.1 µM, first compound 0.3 µM): 2.58%
viability, T/C (second compound 0.1 µM, first compound 0.949 µM): 1.95%
viability, T/C (second compound 0.1 µM, first compound 3 µM): 2.75%
viability, T/C (second compound 0.316 µM, first compound 0.00949 µM): 71.2%
viability, T/C (second compound 0.316 µM, first compound 0.03 µM): 59.6%
viability, T/C (second compound 0.316 µM, first compound 0.0949 µM): 27.2%
viability, T/C (second compound 0.316 µM, first compound 0.3 µM): 1.79%
viability, T/C (second compound 0.316 µM, first compound 0.949 µM): 3.55%
viability, T/C (second compound 0.316 µM, first compound 3 µM): 3.21%
viability, T/C (second compound 1 µM, first compound 0.00949 µM): 91.7%
viability, T/C (second compound 1 µM, first compound 0.03 µM): 78.2%
viability, T/C (second compound 1 µM, first compound 0.0949 µM): 9.34%
viability, T/C (second compound 1 µM, first compound 0.3 µM): 3.35%
viability, T/C (second compound 1 µM, first compound 0.949 µM): 3.92%
viability, T/C (second compound 1 µM, first compound 3 µM): 2.96%

Compound: COc1c(OCCCN2CCOCC2)ccc2c3n(c(=NC(=O)c4cnc(N)nc4)nc12)CCN3 + CCN1CCN(Cc2ccc(Nc3ncc(F)c(-c4cc(F)c5nc(C)n(C(C)C)c5c4)n3)nc2)CC1
pIC50 [1]: 8.10
pIC50 [2]: 8.06
pIC50 [3]: > 8.50
pIC50 [4]: 8.36
pIC50 [5]: 7.89
viability, T/C (second compound 0.01 µM, first compound 0.00316 µM): 64.5%
viability, T/C (second compound 0.01 µM, first compound 0.01 µM): 44.5%
viability, T/C (second compound 0.01 µM, first compound 0.0316 µM): 31.5%
viability, T/C (second compound 0.01 µM, first compound 0.1 µM): 12.7%
viability, T/C (second compound 0.01 µM, first compound 0.316 µM): 6.31%
viability, T/C (second compound 0.01 µM, first compound 1 µM): 3.91%
viability, T/C (second compound 0.0316 µM, first compound 0.00316 µM): 62.6%
viability, T/C (second compound 0.0316 µM, first compound 0.01 µM): 48.8%
viability, T/C (second compound 0.0316 µM, first compound 0.0316 µM): 28.5%
viability, T/C (second compound 0.0316 µM, first compound 0.1 µM): 17%
viability, T/C (second compound 0.0316 µM, first compound 0.316 µM): 5.97%
viability, T/C (second compound 0.0316 µM, first compound 1 µM): 5.05%
viability, T/C (second compound 0.1 µM, first compound 0.00316 µM): 44.3%
viability, T/C (second compound 0.1 µM, first compound 0.01 µM): 39.5%
viability, T/C (second compound 0.1 µM, first compound 0.0316 µM): 22.5%
viability, T/C (second compound 0.1 µM, first compound 0.1 µM): 15.9%
viability, T/C (second compound 0.1 µM, first compound 0.316 µM): 7.66%
viability, T/C (second compound 0.1 µM, first compound 1 µM): 6.13%
viability, T/C (second compound 0.316 µM, first compound 0.00316 µM): 53%
viability, T/C (second compound 0.316 µM, first compound 0.01 µM): 42.6%
viability, T/C (second compound 0.316 µM, first compound 0.0316 µM): 22.9%
viability, T/C (second compound 0.316 µM, first compound 0.1 µM): 19.4%
viability, T/C (second compound 0.316 µM, first compound 0.316 µM): 8.1%
viability, T/C (second compound 0.316 µM, first compound 1 µM): 7.06%
viability, T/C (second compound 1 µM, first compound 0.00316 µM): 74.1%
viability, T/C (second compound 1 µM, first compound 0.01 µM): 53.5%
viability, T/C (second compound 1 µM, first compound 0.0316 µM): 37%
viability, T/C (second compound 1 µM, first compound 0.1 µM): 26.9%
viability, T/C (second compound 1 µM, first compound 0.316 µM): 14.7%
viability, T/C (second compound 1 µM, first compound 1 µM): 12.4%

pIC50 (curve of compound): 6.71 and 6.46
Compound: C=CCn1c(=O)c2cnc(Nc3ccc(N4CCN(C)CC4)cc3)nc2n1-c1cccc(C(C)(C)O)n1
viability, T/C (compound 0.0316 µM): 86.2% and 89.5%
viability, T/C (compound 0.1 µM): 72.7% and 72.8%
viability, T/C (compound 0.316 µM): 33.4% and 47.7%
viability, T/C (compound 1 µM): 27.7% and 37.4%
viability, T/C (compound 3.16 µM): 25% and 28.7%
viability, T/C (compound 10 µM): 21.1% and 20.1%
